By logP is commonly meant a log measure of how a compound divides between an organic and an aqueous phase.

SMILES strings stand for the structures.

A short description of one data set: method code G-GLC, from DOI: 10.1021/je00030a025.
`C#CCCCC` gave a logP of 2.73.

Molecule `Fc1ccccc1CCl` showed a logP of 2.67.

`CCCCCCCO` returned a logP of 2.57.

In turn, `C=CCCCCC` displayed a logP of 3.99.

In the case of `CCCCCCCCl`, the log partition coefficient (logP) came to 4.15.

For `CCCCCCCI`, the logP came out at 4.7.

Take `ClCCCBr`: the logP worked out at 2.18.

In the case of `CCCCCCBr`, the logP turned out to be 3.8.

In turn, `C=CCCCCCCC` had a logP of 5.15.

In turn, `CCCCCCCC` showed a logP of 5.18.

For `CCC(=O)CC`, the logP was 0.99.

`CCCCCCCCBr` came in with a logP of 4.89.

A short description of another data set: method code G-HPLC, from DOI: 10.1021/je00030a025.
In the case of `CCCCCCC(C)=O`, the logP came to 2.76.

`C=CCCBr`: the logP is 2.53.

`O=Cc1ccco1` gave a logP of 0.52.

Molecule `CC(=O)OCCBr` displayed a logP of 1.11.

The molecule `CCCCCc1ccccc1` registered a logP of 4.9.

In the case of `CCCCCCCC(C)=O`, the logP came to 3.18.

`Fc1cccc(CCl)c1` returned a logP of 2.77.

Source of the values: the SangsterLogP compilation.
